Experimental data as given in PMC2912373, “Low-Density Lipoprotein Receptor-Related Protein 1 (LRP1) Mediates Neuronal Aβ42 Uptake and Lysosomal Trafficking” (PLoS ONE, 2010).

System: N2a-mLRP4 cells
Test: Steady-state FAM-Aβ42 accumulation (continuous feeding), FACS
Format: cell-based, mouse
Settings: for levels of FAM-Aβ42 in N2a-mLRP4 cells compared to N2a-pcDNA3 cells: 500 nM FAM-Aβ42, 37°C, n = 3
Experimental: To determine whether internalized Aβ42 is accumulated over time, we performed continuous feeding experiments of FAM-Aβ42 in N2a-pcDNA3 and N2a-mLRP4 cells. The steady-state levels and localization of Aβ42 were determined by flow cytometry and confocal microscopy, respectively (Fig. 2). Cells were incubated with 500 nM FAM-Aβ42 at 37°C for 24, 48 or 72 h and the content of fluorescence per cell was quantified by FACS and presented as a percentage of the levels in N2a-pcDNA3 at each time point (Fig. 2A). […] Therefore, we analyzed the subcellular localization of internalized FAM-Aβ42 by confocal microscopy in N2a cells treated as before and analyzed co-localization with lysosomes. For the visualization of acidic organelles, a brief incubation with LysoTracker Red at the end of the experiment was included (Fig. 2B). After 24 h of incubation, a small amount of cell-associated Aβ42 can be detected in N2a-mLRP4 cells.
Figure 2 Increased accumulation of intracellular Aβ42 within lysosomes in LRP1 minireceptor-expressing cells. A, increased Aβ42 accumulation in LRP1 minireceptor-expressing cells. N2a-mLRP4 and N2a-pcDNA3 cells were treated with 500 nM of FAM-Aβ42 at 37°C for 24, 48 and 72 h, and steady-state levels of intracellular Aβ42 were determined by flow cytometric analyses of pronase-treated cells as described in the Experimental Procedures. […] B, increased co-localization of intracellular Aβ42 and lysosomes in N2a-mLRP4 cells. N2a-pcDNA3 and N2a-mLRP4 cells were grown in glass chamber slides and treated with 500 nM of FAM-Aβ42 at 37°C for 24, 48 and 72 h. Lysosomes were labeled with LysoTracker 30 min before the end of each incubation. Cells were then fixed and analyzed by confocal microscopy.
For quantification of Aβ uptake experiments, stable N2a cells were plated into 12-well plates at 16,250 cells/cm^2 and grown overnight. Similar to imaging assays, cells were washed twice with PBS and incubated for the indicated periods of time with pre-warmed internalization media containing 500 nM FAM -Aβ42. After incubation, cells were washed twice with PBS and non-enzymatically detached as before in 500 µL cell dissociation solution. Cells were sequentially washed once with 1 mL of cold internalization media and twice with 2 mL cold PFN. Cells were finally resuspended in PFN-1% PFA and analyzed by FACS as before. For MEF-1 and MEF-2 experiments, 5,000 cells/cm^2 were plated in 12-well plates the day before. Cells were then washed twice with PBS and incubated 4 h with pre-warmed internalization media containing 500 nM FAM-Aβ42. After completion of the incubation time, cells were processed by FACS analysis as described above for N2a cells.
LRP1 knockdown was carried out in GT1-7 cells by siRNA transfection using Lipofectamine 2000 (Invitrogen, Carlslab, CA) and 120 nM of dsRNA duplex (Ambion, Austin, TX). Briefly, cells were plated in 6-well plates the day before transfection and grown overnight. Scrambled and LRP1 siRNA duplexes were generated according to the manufacturer's instruction and complexed with Lipofectamine 2000 as previously described. FAM-Aβ42 experiments were performed 72 h after siRNA transfection and analyzed as previously described for N2a cells. For clathrin heavy chain knockdown, shRNA lentiviruses were produced in the Viral Vectors Core facility at Washington University School of Medicine. In brief, 293T cells were transfected with pLKO.1-derived constructs together with the pHR'8.2ΔR and pCMV-VSV-G packaging systems as previously described. […]

FAM-Aβ42: FAM-Aβ42 peptide (23526) from Anaspec; amyloid-β 42 with carboxyfluorescein at the N-terminal region
levels of FAM-Aβ42 in N2a-mLRP4 cells compared to N2a-pcDNA3 cells (24 h, FACS of pronase-treated cells): slight increase
levels of FAM-Aβ42 in N2a-mLRP4 cells compared to N2a-pcDNA3 cells (48 h, FACS of pronase-treated cells): twice the levels
levels of FAM-Aβ42 in N2a-mLRP4 cells compared to N2a-pcDNA3 cells (72 h, FACS of pronase-treated cells): twice the levels
cell-associated FAM-Aβ42 in N2a-mLRP4 cells compared to N2a-pcDNA3 cells (500 nM, 48 h, FACS, pronase-treated and untreated cells): increases
FAM-Aβ42 uptake in clathrin knocked down cells compared to control, empty lentivirus (N2a-mLRP4, clathrin heavy chain shRNA lentivirus, 500 nM, 48 h, FACS of pronase-treated cells): twofold decrease
